IC50 data for 21 compounds are collected here from patent publication US20080287479A1, “INHIBITORS OF SERINE PALMITOYLTRANSFERASE” (Pfizer Inc, priority 2006, published 2008).

Structures can show the parent of a compound that is named as a salt.

The first assay deals with T1, Serine Palmitoyl Transferase (SPT); microsomes from HEK 293 cells stably transfected with human LCB2 subunit of SPT (Homo sapiens, UniProt O15270).
T1 construct: expressed in transfected cells; host or cells: HEK 293 cells stably transfected with LCB2; microsomal fraction
T1 sequence (O15270 1-562): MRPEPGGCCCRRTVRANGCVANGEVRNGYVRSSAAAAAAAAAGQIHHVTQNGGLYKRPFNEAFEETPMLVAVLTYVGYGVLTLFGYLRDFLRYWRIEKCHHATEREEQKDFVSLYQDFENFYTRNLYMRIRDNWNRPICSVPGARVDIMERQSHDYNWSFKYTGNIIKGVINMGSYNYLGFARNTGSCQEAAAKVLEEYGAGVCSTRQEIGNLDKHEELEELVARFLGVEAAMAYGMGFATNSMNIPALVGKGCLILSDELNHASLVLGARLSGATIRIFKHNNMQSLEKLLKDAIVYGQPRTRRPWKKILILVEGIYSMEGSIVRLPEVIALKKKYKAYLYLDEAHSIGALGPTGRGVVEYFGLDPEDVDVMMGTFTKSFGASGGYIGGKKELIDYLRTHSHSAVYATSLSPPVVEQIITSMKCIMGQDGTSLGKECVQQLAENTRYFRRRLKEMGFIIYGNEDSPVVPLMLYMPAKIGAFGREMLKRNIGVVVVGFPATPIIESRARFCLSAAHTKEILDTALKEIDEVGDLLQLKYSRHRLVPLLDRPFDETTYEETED
T1 sequence (O15269 1-473 partner): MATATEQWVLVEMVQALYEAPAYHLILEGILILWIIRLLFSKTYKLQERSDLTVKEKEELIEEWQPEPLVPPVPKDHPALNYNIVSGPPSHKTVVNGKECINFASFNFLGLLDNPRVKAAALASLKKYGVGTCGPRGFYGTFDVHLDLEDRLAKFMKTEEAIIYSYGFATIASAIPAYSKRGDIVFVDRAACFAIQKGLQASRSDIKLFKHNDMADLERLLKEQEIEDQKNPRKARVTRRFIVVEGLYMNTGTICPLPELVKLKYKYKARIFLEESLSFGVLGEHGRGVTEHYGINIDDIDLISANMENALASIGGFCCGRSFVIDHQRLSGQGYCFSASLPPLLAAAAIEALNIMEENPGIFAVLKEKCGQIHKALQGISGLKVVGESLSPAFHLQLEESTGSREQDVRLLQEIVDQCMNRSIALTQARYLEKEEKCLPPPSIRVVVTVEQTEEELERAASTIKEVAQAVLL
T1 sequence (Q969W0 1-71 partner): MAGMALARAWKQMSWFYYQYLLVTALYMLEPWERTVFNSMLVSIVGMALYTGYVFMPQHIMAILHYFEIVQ
The assay is described as follows: SPT flashplate assay. The format is biochemical. The settings on record: SPTISF IC50 (nM).
`CCc1ccc(C(=O)CN2CCC(n3c(=O)[nH]c4cc(C(=O)NC)c(F)cc43)CC2)cc1` [Example 9, 1-[2-(4-ethylphenyl)-2-oxoethyl]-4-{6-fluoro-5-[(methylamino)carbonyl]-2-oxo-2,3-dihydro-1H-benzimidazol-1-yl}piperidinium chloride]: the IC50 was 6.2 nM.

`CNC(=O)c1ccc2c(c1)CC(=O)N2C1CCN(CC(=O)N2CCC(C)(OC)CC2)CC1` [Example 19, 1-[2-(4-methoxy-4-methylpiperidin-1-yl)-2-oxoethyl]-4-{5-[(methylamino)carbonyl]-2-oxo-2,3-dihydro-1H-indol-1-yl}piperidinium chloride] showed an IC50 of 18.7 nM.

On to `CNC(=O)c1ccc2c(c1)CC(=O)N2C1CCN(CC(=O)N2C[C@H]3CCC[C@H]3C2)CC1` [Example 20, 1-{2-[(3aR,6aS)-hexahydrocyclopenta[c]pyrrol-2(1H)-yl]-2-oxoethyl}-4-{5-[(methylamino)carbonyl]-2-oxo-2,3-dihydro-1H-indol-1-yl}piperidinium hydrogen sulfate], for which the midpoint of inhibition, the IC50, lay at 11.4 nM.

In the case of `CNC(=O)c1cc2c(cc1F)N(C1CCN(CC(=O)N3C[C@H]4CCC[C@H]4C3)CC1)C(=O)C2` [Example 21, 4-{6-fluoro-5-[(methylamino)carbonyl]-2-oxo-2,3-dihydro-1H-indol-1-yl}-1-{2-[(3aR,6aS)-hexahydrocyclopenta[c]pyrrol-2(1H)-yl]-2-oxoethyl}piperidinium chloride], the IC50 turned out to be 14.6 nM.

`CNC(=O)c1cc2c(cc1F)N(C1CCN(CC(=O)N3CCC(C)(C)CC3)CC1)C(=O)C2` [Example 22, 1-[2-(4,4-dimethylpiperidin-1-yl)-2-oxoethyl]-4-{6-fluoro-5-[(methylamino)carbonyl]-2-oxo-2,3-dihydro-1H-indol-1-yl}piperidinium chloride]: the IC50 worked out at 10.6 nM.

Consider `CNC(=O)c1ccc2c(c1)CC(=O)N2C1CCN(CC(=O)N2CCC(C)(C)CC2)CC1` [Example 23, 1-[2-(4,4-dimethylpiperidin-1-yl)-2-oxoethyl]-4-{5-[(methylamino)carbonyl]-2-oxo-2,3-dihydro-1H-indol-1-yl}piperidinium chloride], for which the half-inhibitory concentration (IC50) came to 8.4 nM.

On to `CNC(=O)c1ccc2c(c1)CC(=O)N2C1CCN(CC(=O)N2CCC3(CC2)CC3)CC1` [Example 25, 1-[2-6-azaspiro[2.5]oct-6-yl)-2-oxoethyl]-4-{5-[(methylamino)carbonyl]-2-oxo-2,3-dihydro-1H-indol-1-yl}piperidinium chloride], for which the IC50 came out at 2.64 nM.

The same assay, now with this note: microsomes of HEK 293 LCB2 cells, 3H-serine and palmitoyl CoA, phospholipid coated flashplate, 18-24 hours at room temperature; read-out: SPTISF IC50.
With `CNC(=O)c1cc2[nH]c(=O)n(C3CCN(CC(=O)C4CCCCC4)CC3)c2cc1F` [Example 11, 1-[1-(2-cyclohexyl-2-oxoethyl)piperidin-4-yl]-6-fluoro-N-methyl-2-oxo-2,3-dihydro-1H-benzimidazole-5-carboxamide], the IC50 was determined as 63 nM.

For `CNC(=O)c1cc2[nH]c(=O)n(C3CCN(CC(=O)C4CCC(F)(F)CC4)CC3)c2cc1F` [Example 12, 1-{1-[2-(4,4-difluorocyclohexyl)-2-oxoethyl]piperidin-4-yl}-6-fluoro-N-methyl-2-oxo-2,3-dihydro-1H-benzimidazole-5-carboxamide], the IC50 was 5.3 nM.

As for `CNC(=O)c1cc2[nH]c(=O)n(C3CCN(CC(=O)C4CCC(C)CC4)CC3)c2cc1F` (stereo not drawn) [Example 13, 6-fluoro-N-methyl-1-{1-[2-(4-methylcyclohexyl)-2-oxoethyl]piperidin-4-yl}-2-oxo-2,3-dihydro-1H-benzimidazole-5-carboxamide], the IC50 was 6 nM.

As for `CNC(=O)c1cc2[nH]c(=O)n(C3CCN(CC(=O)C4CCC(C(C)(C)C)CC4)CC3)c2cc1F` (stereo not drawn) [Example 14, 1-{1-[2-(4-tert-butylcyclohexyl)-2-oxoethyl]piperidin-4-yl}-6-fluoro-N-methyl-2-oxo-2,3-dihydro-1H-benzimidazole-5-carboxamide], the half-maximal inhibitory concentration (IC50) turned out to be 106 nM.

Consider `CNC(=O)c1cc2[nH]c(=O)n(C3CCN(CC(=O)C4CCC(C(F)(F)F)CC4)CC3)c2cc1F` (stereo not drawn) [Example 15, 6-fluoro-N-methyl-2-oxo-1-(1-{2-oxo-2-[4(trifluoromethyl)cyclohexyl]ethyl}piperidin-4-yl)-2,3-dihydro-1H-benzimidazole-5-carboxamide], for which the IC50 was found to be 9.5 nM.

For `CNC(=O)c1cc2[nH]c(=O)n(C3CCN(CC(=O)C4CCC(C)(OC)CC4)CC3)c2cc1F` (stereo not drawn) [Example 16, 6-fluoro-1-{1-[2-(4-methoxy-4-methylcyclohexyl)-2-oxoethyl]piperidin-4-yl}-N-methyl-2-oxo-2,3-dihydro-1H-benzimidazole-5-carboxamide], the half-maximal inhibitory concentration (IC50) was determined as 53 nM.

With `CNC(=O)c1cc2[nH]c(=O)n(C3CCN(CC(=O)C4(C)CCCCC4)CC3)c2cc1F` [Example 17, 6-fluoro-N-methyl-1-{1-[2-(1-methylcyclohexyl)-2-oxoethyl]piperidin-4-yl}-2-oxo-2,3-dihydro-1H-benzimidazole-5-carboxamide], the IC50 amounted to 7.14 nM.

`CNC(=O)c1cc2[nH]c(=O)n(C3CCN(CC(=O)N4CCC(C)(C)CC4)CC3)c2cc1F` [Example 26, 1-[2-(4,4-dimethylpiperidin-1-yl)-2-oxoethyl]-4-{6-fluoro-5-[(methylamino)carbonyl]-2-oxo-2,3-dihydro-1H-benzimidazol-1-yl}piperidinium chloride]: the IC50 was 7.5 nM.

Regarding `CCC1(C)CCN(C(=O)CN2CCC(n3c(=O)[nH]c4cc(C(=O)NC)c(F)cc43)CC2)CC1` [Example 27, 1-{1-[2-(4-ethyl-4-methylpiperidin-1-yl)-2-oxoethyl]piperidin-4-yl}-6-fluoro-N-methyl-2-oxo-2,3-dihydro-1H-benzimidazole-5-carboxamide], the 50% inhibitory concentration (IC50) came out at 6 nM.

Regarding `CNC(=O)c1cc2[nH]c(=O)n(C3CCN(CC(=O)N4CCC5(CC4)CC5)CC3)c2cc1F` [Example 28, 1-{1-[2-(6-azaspiro[2.5]oct-6-yl)-2-oxoethyl]piperidin-4-yl}-6-fluoro-N-methyl-2-oxo-2,3-dihydro-1H-benzimidazole-5-carboxamide], the half-inhibitory concentration (IC50) came to 12.9 nM.

As for `C=C1CCN(C(=O)CN2CCC(n3c(=O)[nH]c4cc(C(=O)NC)c(F)cc43)CC2)CC1` [Example 29, 6-fluoro-N-methyl-1-{1-[2-(4-methylonepiperidin-1-yl)-2-oxoethyl]piperidin-4-yl}-2-oxo-2,3-dihydro-1H-benzimidazole-5-carboxamide], the IC50 worked out at 9.4 nM.

Consider `CNC(=O)c1cc2[nH]c(=O)n(C3CCN(CC(=O)N4CC5CCC(CC5)C4)CC3)c2cc1F` [Example 30, 1-{1-[2-(3-azabicyclo[3.2.2]non-3-yl)-2-oxoethyl]piperidin-4-yl}-6-fluoro-N-methyl-2-oxo-2,3-dihydro-1H-benzimidazole-5-carboxamide], for which the concentration for half-maximal inhibition (IC50) was 14.5 nM.

Take `CNC(=O)c1cc2[nH]c(=O)n(C3CCN(CC(=O)N4C[C@H]5CCC[C@H]5C4)CC3)c2cc1F` [Example 31, 6-fluoro-1-(1-{2-[(3aR,6aS)-hexahydrocyclopenta[c]pyrrol-2(1H)-yl]-2-oxoethyl}piperidin-4-yl)-N-methyl-2-oxo-2,3-dihydro-1H-benzimidazole-5-carboxamide]: the 50% inhibitory concentration (IC50) stood at 14.7 nM.

On to `CNC(=O)c1cc2[nH]c(=O)n(C3CCN(CC(=O)N4CCC(C)(OC)CC4)CC3)c2cc1F` [Example 32, 6-fluoro-1-{1-[2-(4-methoxy-4-methylpiperidin-1-yl)-2-oxoethyl]piperidin-4-yl}-N-methyl-2-oxo-2,3-dihydro-1H-benzimidazole-5-carboxamide], for which the IC50 is 26 nM.
